Data reported in the supplement of paper PMC11208160.

Assay: recombinant UMI read abundance after kanamycin selection (control-corrected) (log10(CPM+1)); higher = more efficient recombination; extreme values may be limits of the assay; sequences stand for … in AGTGCAGAGAAAATCGGCCAGTTTTCTCTGCCTGCAGTCCGCATGCCGTGGGACCCCTTGGGTTCTAACCTGTTGCCTAGATTTATGCAGCGGACTGCCTTTCTCCCAAAGTGATAAACCGG…AGGTTGGTTTCACT; site = the 11-nt donor
Description: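 Pooled E. coli donor-specificity screen for the IS621 bridge recombinase. Each library member carries a reprogrammed 11-nt donor and a full-length LE bridge RNA expressed in cis from the natural promoter, with a paired donor-binding loop (8-nt LDG + 4-nt RDG) and a target-binding loop fixed to T5. It is co-electroporated with a T5 target plasmid; recombinase is induced with 0.07 mM IPTG and recombinants are selected on kanamycin. UMIs are counted as CPM, averaged over two biological replicates and corrected by the unselected control. Molecule = full bridge RNA written as DNA, built from the T5 scaffold: LDG = donor specificity nt 1-8, RDG = reverse complement of nt 8-11.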
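Also: IS621 bridge recombinase in Escherichia coli cells against a fixed T5 target plasmid.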

Sequence | recombinant UMI read abundance (log10)
AAGTCGTCATGGACCGGTTTTCCCGGTAATCCGTATTTGCG (site AAGTCGTCTCG) | 1.19
AAGTGAGCATGGACCGGTTTTCCCGGTAATCCGTATTTGGA (site AAGTGAGCTTC) | 0.812
AATAATGCATGGACCGGTTTTCCCGGTAATCCGTATTTGGA (site AATAATGCTTC) | 1.06
AATAATGCATGGACCGGTTTTCCCGGTAATCCGTATTTGGA (site AATCATGCTTC) | 0.217
AATAATGCATGGACCGGTTTTCCCGGTAATCCGTATTTGGA (site AATGATGCTTC) | 0.361
AATAATGCATGGACCGGTTTTCCCGGTAATCCGTATTTGGA (site AATTATGCTTC) | 0.707
AATACTTCATGGACCGGTTTTCCCGGTAATCCGTATTTGGA (site AATACTTCTTC) | 1.81
AATAGACCATGGACCGGTTTTCCCGGTAATCCGTATTTGAT (site AATAGACCTAT) | 0
AATAGTACATGGACCGGTTTTCCCGGTAATCCGTATTTGCG (site AATAGTACTCG) | 0.989
AATCAACCATGGACCGGTTTTCCCGGTAATCCGTATTTGGT (site AATCAACCTAC) | 0.00613
AATCAATCATGGACCGGTTTTCCCGGTAATCCGTATTTGGC (site AATCAATCTGC) | 2.07
AATCATTCATGGACCGGTTTTCCCGGTAATCCGTATTTGCT (site AATCATTCTAG) | 2.27
AATCCTCCATGGACCGGTTTTCCCGGTAATCCGTATTTGGA (site AATCCTCCTTC) | 0
AATCGTCCATGGACCGGTTTTCCCGGTAATCCGTATTTGAT (site AAACGTCCTAT) | 0.00356
AATCGTCCATGGACCGGTTTTCCCGGTAATCCGTATTTGAT (site AACCGTCCTAT) | 0.0167
AATCGTCCATGGACCGGTTTTCCCGGTAATCCGTATTTGAT (site AAGCGTCCTAT) | 0.432
AATCGTCCATGGACCGGTTTTCCCGGTAATCCGTATTTGAT (site AATCGTCCTAT) | 0.306
AATCTACCATGGACCGGTTTTCCCGGTAATCCGTATTTGAG (site AATCTACCTCT) | 0.0184
AATCTCGCATGGACCGGTTTTCCCGGTAATCCGTATTTGCG (site AATCTCGCTCG) | 0.0146
AATGCCTCATGGACCGGTTTTCCCGGTAATCCGTATTTGAG (site AATGCCTCTCT) | 0.693
AATGTATCATGGACCGGTTTTCCCGGTAATCCGTATTTGCT (site AATGTAACTAG) | 0.796
AATGTATCATGGACCGGTTTTCCCGGTAATCCGTATTTGCT (site AATGTACCTAG) | 0.03
AATGTATCATGGACCGGTTTTCCCGGTAATCCGTATTTGCT (site AATGTAGCTAG) | 0
AATGTATCATGGACCGGTTTTCCCGGTAATCCGTATTTGCT (site AATGTATCTAG) | 2.56

Sequence | recombinant UMI read abundance (log10)
AATTAGGCATGGACCGGTTTTCCCGGTAATCCGTATTTGGA (site AATTAAGCTTC) | 0.133
AATTAGGCATGGACCGGTTTTCCCGGTAATCCGTATTTGGA (site AATTACGCTTC) | 0.011
AATTAGGCATGGACCGGTTTTCCCGGTAATCCGTATTTGGA (site AATTAGGCTTC) | 0.746
AATTAGGCATGGACCGGTTTTCCCGGTAATCCGTATTTGGA (site AATTATGCTTC) | 0.317
AATTATTCATGGACCGGTTTTCCCGGTAATCCGTATTTGGA (site AATTATACTTC) | 0.554
AATTATTCATGGACCGGTTTTCCCGGTAATCCGTATTTGGA (site AATTATCCTTC) | 0.553
AATTATTCATGGACCGGTTTTCCCGGTAATCCGTATTTGGA (site AATTATGCTTC) | 0.0186
AATTATTCATGGACCGGTTTTCCCGGTAATCCGTATTTGGA (site AATTATTCTTC) | 2.28
AATTCGTCATGGACCGGTTTTCCCGGTAATCCGTATTTGAA (site AATTCGTCTTT) | 0.559
AATTGTGCATGGACCGGTTTTCCCGGTAATCCGTATTTGGA (site AATTATGCTTC) | 0.773
AATTGTGCATGGACCGGTTTTCCCGGTAATCCGTATTTGGA (site AATTCTGCTTC) | 0.00901
AATTGTGCATGGACCGGTTTTCCCGGTAATCCGTATTTGGA (site AATTGTGCTTC) | 0.895
AATTGTGCATGGACCGGTTTTCCCGGTAATCCGTATTTGGA (site AATTTTGCTTC) | 0.0805
AATTTAGCATGGACCGGTTTTCCCGGTAATCCGTATTTGTC (site AATTTAGCTGA) | 0.582
AATTTTGCATGGACCGGTTTTCCCGGTAATCCGTATTTGGA (site AATTATGCTTC) | 0.473
AATTTTGCATGGACCGGTTTTCCCGGTAATCCGTATTTGGA (site AATTCTGCTTC) | 0.118
AATTTTGCATGGACCGGTTTTCCCGGTAATCCGTATTTGGA (site AATTGTGCTTC) | 0.154
AATTTTGCATGGACCGGTTTTCCCGGTAATCCGTATTTGGA (site AATTTTGCTTC) | 1
ACAAAGACATGGACCGGTTTTCCCGGTAATCCGTATTTGCA (site ACAAAGACTTG) | 3.1
ACAAAGACATGGACCGGTTTTCCCGGTAATCCGTATTTGCA (site AGGAAGACTTG) | 2.33
ACAAAGCCATGGACCGGTTTTCCCGGTAATCCGTATTTGGC (site ACAAAGCCTGC) | 0
ACAAGAACATGGACCGGTTTTCCCGGTAATCCGTATTTGTC (site ACAAGAACTGA) | 1.75
ACAAGAACATGGACCGGTTTTCCCGGTAATCCGTATTTGTC (site ACACGAACTGA) | 0.00498
ACAAGAACATGGACCGGTTTTCCCGGTAATCCGTATTTGTC (site ACAGGAACTGA) | 0

Sequence | recombinant UMI read abundance (log10)
ACAAGAACATGGACCGGTTTTCCCGGTAATCCGTATTTGTC (site ACATGAACTGA) | 0
ACAAGGACATGGACCGGTTTTCCCGGTAATCCGTATTTGCG (site ACAAGGACTCG) | 2.42
ACAAGGGCATGGACCGGTTTTCCCGGTAATCCGTATTTGAC (site ACAAGGGCTGT) | 2.69
ACAAGTGCATGGACCGGTTTTCCCGGTAATCCGTATTTGAC (site ACAAGTGCTGT) | 2.62
ACAAGTTCATGGACCGGTTTTCCCGGTAATCCGTATTTGTC (site ACAAGTTCTGA) | 0
ACAATATCATGGACCGGTTTTCCCGGTAATCCGTATTTGCA (site ACAATATCTTG) | 2.85
ACAATATCATGGACCGGTTTTCCCGGTAATCCGTATTTGCA (site ACACTATCTTG) | 1.83
ACAATATCATGGACCGGTTTTCCCGGTAATCCGTATTTGCA (site ACAGTATCTTG) | 2.35
ACAATATCATGGACCGGTTTTCCCGGTAATCCGTATTTGCA (site ACATTATCTTG) | 1.81
ACAATCTCATGGACCGGTTTTCCCGGTAATCCGTATTTGCA (site ACAATCTCTTG) | 2.51
ACAATCTCATGGACCGGTTTTCCCGGTAATCCGTATTTGCA (site ACAGTATCTTG) | 1.54
ACACACCCATGGACCGGTTTTCCCGGTAATCCGTATTTGTG (site ACACACCCTCA) | 0.012
ACACATCCATGGACCGGTTTTCCCGGTAATCCGTATTTGAA (site ACACATCCTAT) | 0.229
ACACATCCATGGACCGGTTTTCCCGGTAATCCGTATTTGAA (site ACACATCCTCT) | 0
ACACATCCATGGACCGGTTTTCCCGGTAATCCGTATTTGAA (site ACACATCCTGT) | 0
ACACATCCATGGACCGGTTTTCCCGGTAATCCGTATTTGAA (site ACACATCCTTT) | 1.72
ACACATCCATGGACCGGTTTTCCCGGTAATCCGTATTTGAG (site ACACATCCTAT) | 0.549
ACACATCCATGGACCGGTTTTCCCGGTAATCCGTATTTGAG (site ACACATCCTCT) | 0.668
ACACATCCATGGACCGGTTTTCCCGGTAATCCGTATTTGAG (site ACACATCCTGT) | 0
ACACATCCATGGACCGGTTTTCCCGGTAATCCGTATTTGAG (site ACACATCCTTT) | 0.381
ACACCTACATGGACCGGTTTTCCCGGTAATCCGTATTTGTG (site ACAACTACTCA) | 0.0154
ACACCTACATGGACCGGTTTTCCCGGTAATCCGTATTTGTG (site ACACCTACTCA) | 0.165
ACACCTACATGGACCGGTTTTCCCGGTAATCCGTATTTGTG (site ACAGCTACTCA) | 0.0267
ACACCTACATGGACCGGTTTTCCCGGTAATCCGTATTTGTG (site ACATCTACTCA) | 0.028
